Drawing on patent publication US8084466B2, “Bicyclic heteroaryl-substituted imidazoles as modulators of the histamine H4 receptor” (Janssen Pharmaceutica NV, priority 2007, dated 2011), this text covers Ki for three compounds.

For this experiment, the target named is T1, human histamine H4 receptor (Homo sapiens, UniProt Q9H3N8).
T1 construct: expressed in transfected cells; host or cells: SK-N-MC cells or COS7 cells, transient transfection with pH4R; cell membranes
The experiment can be described thus: Binding Assay on Recombinant Human Histamine H4 Receptor. Conditions: competition binding with 3H-histamine (5 nM; KD 5 nM), membranes of SK-N-MC or COS7 cells expressing human H4 receptor; average of results; > = highest value tested. The essentials: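 Membranes from SK-N-MC or COS7 cells transiently transfected with H4R incubated 45 min at room temperature with ³H-histamine; nonspecific binding defined with 10,000 nM histamine. Filtration and scintillation counting. Ki from competition with 5 nM ³H-histamine, using a KD of 5 nM.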

T1 sequence (Q9H3N8 whole entry): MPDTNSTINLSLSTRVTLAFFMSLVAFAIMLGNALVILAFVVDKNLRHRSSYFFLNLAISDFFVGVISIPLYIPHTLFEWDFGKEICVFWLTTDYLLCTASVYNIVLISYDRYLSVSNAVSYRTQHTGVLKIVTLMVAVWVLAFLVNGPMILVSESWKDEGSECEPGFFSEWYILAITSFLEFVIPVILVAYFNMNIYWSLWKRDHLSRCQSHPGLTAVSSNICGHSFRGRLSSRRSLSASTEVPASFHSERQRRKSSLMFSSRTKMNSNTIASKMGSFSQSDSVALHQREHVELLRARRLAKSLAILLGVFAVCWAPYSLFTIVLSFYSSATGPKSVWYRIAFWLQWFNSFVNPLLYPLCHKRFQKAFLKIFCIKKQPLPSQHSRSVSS

Regarding `FC(F)(F)c1ccc2nc(-c3cccc4c3ccn4CCCCC3CCNCC3)[nH]c2c1` [Example 141, 2-[1-(4-Piperidin-4-yl-butyl)-1H-indol-4-yl]-6-trifluoromethyl-1H-benzoimidazole], the Ki came out at 2170 nM.

As for `Cc1nc(-c2ccc3c(ncn3CCCC3CCN(C)CC3)c2C)[nH]c1-c1ccc(C(F)(F)F)cc1` [Example 142, 4-Methyl-1-[3-(1-methyl-piperidin-4-yl)-propyl]-5-[4-methyl-5-(4-trifluoromethyl-phenyl)-1H-imidazol-2-yl]-1H-benzoimidazole], the Ki was determined as 7 nM. With `COc1ccc(-c2[nH]c(-c3ccc4c(ncn4CCCC4CCN(C)CC4)c3C)nc2C)cc1` [Example 143, 5-[5-(4-Methoxy-phenyl)-4-methyl-1H-imidazol-2-yl]-4-methyl-1-[3-(1-methyl-piperidin-4-yl)-propyl]-1H-benzoimidazole], the Ki came out at 1 nM.

One may read the Ki as the equilibrium dissociation constant of an inhibitor or competing ligand from its target.
